{"source": "paper PMC8761492", "about": "(Life Science Alliance, 2022)", "key": {"[1]": {"system": "COVID-19", "experiment": "APLICOV-PC: six-point ordinal scale (post hoc)", "format": "in vivo, human", "conditions": "Day 31", "experimental": "Although not specified in the protocol (so not captured in the CRF), post-hoc analysis was performed to categorize the status of each patient at baseline, on Days 7, 15, 31, and at time of discharge using the following 6-point ordinal scale (Wang et al 2020):\nHospital admission, not requiring supplemental oxygen\nHospital admission, requiring supplemental oxygen\nHospital admission, requiring high-flow nasal cannula or noninvasive mechanical ventilation\nHospital admission, requiring extracorporeal membrane oxygenation or invasive mechanical ventilation\nThe number and percentage of patients with at least 1-point and at least 2-point improvements from baseline was calculated for Days 7, 15, 31 and date of discharge."}, "[2]": {"system": "SARS-CoV-2", "experiment": "APLICOV-PC: SARS-CoV-2 viral load by qRT-PCR of nasopharyngeal samples", "format": "in vivo, human", "conditions": "for mean viral load decline from baseline: all doses; for log10 viral load: individual patients, ND = not detected", "experimental": "Secondary outcomes included change from baseline of viral load, as evaluated by quantitative PCR via central laboratory on nasopharyngeal exudate or sampled from the lower respiratory tract within 48 h before first administration of plitidepsin and on days 4, 7, 15, and 31, and the percentage of patients requiring oxygen therapy, noninvasive mechanical ventilation, invasive mechanical ventilation and/or intensive care unit admission, and the percentage of patients with a fatal outcome on days 7, 15, and 31.\nCentralized assessments of nasopharyngeal samples were performed at SYNLAB. Viral RNA extraction from the samples was performed using the Maxwell HT Viral TNA (AX2340) Promega, on the Hamilton automated extraction platform. Detection of nCoV2019 was carried out with the kit: TaqPath TM COVID-19 RT-PCR KIT (A48102) Thermo Fisher Scientific. The positivity/negativity criteria used for the interpretation of the results are defined in Table S7.\nEach sample was analyzed in triplicate, and the cycle threshold (CT) value obtained was extrapolated to the standard curve, so that a value of viral load is obtained per reaction for said sample. The quantification, in triplicate, of the viral load of the patient sample was carried out at each of the five time points.\nFor quantification, in each sample plate, eight points, in triplicate (24 PCR in total), of the plasmid IDT 2019 nCov Kit CDC EUA of known viral load was used to generate the standard line on which to extrapolate the results of the samples of the trial patients. The sensitivity of the analytical method is 10 mRNA copies/run. Assuming a starting sample volume of 200 μl, from which 100 μl of mRNA can be obtained, and that a single PCR run requires 5 μl mRNA, it can be estimated that the sensitivity for 100% of the replicates is 1,000 mRNA copies/ml (3 log10). For mathematical analysis and graphical visualization, an intermediate value of 1.5 log10 has been imputed to samples with undetected SARS-CoV-2 mRNA."}, "[3]": {"experiment": "Tissue distribution of total radioactivity after single IV bolus of [14C]plitidepsin", "format": "in vivo, Sprague–Dawley rats", "conditions": "rat, 0.2 mg/kg i.v. bolus", "experimental": "An in vivo distribution study was carried out in rats. PM140064 (14C1-Plitidepsin) was supplied by PharmaMar at a radiochemical purity of 95% or greater, with no single impurity 3% or greater. The study was conducted at Aptuit Srl ([54]).\n24 male and 24 female Sprague–Dawley rats each received a single IV bolus administration of [14C] Plitidepsin at a target dose of 0.2 mg/kg. After administration, three animals per time-point (0.25, 1, 2, 4, 8, 24, 48, and 72 h post-dose) were exsanguinated from the abdominal aorta and blood retained. Actual times of bleeding were recorded. In addition to blood, the following tissues were collected: brain, eyeballs, heart, liver, lung, skeletal muscle (quadriceps), fat, kidneys, stomach, skin, small intestine, spleen, thyroid, lymph nodes, and testes or ovaries. At the end of the collection period animals were euthanized by CO2 asphyxiation and the carcasses were discarded. Additional animals were bled to obtain control blood/plasma and tissues."}}, "note": "“And” between values parts separate entries of the source, which are not always exact repeats. Identical values can stand only once. Starred links: 1 amine or outer side, 2 acyl side, 3 side chain; linkers in the order of their positions; H or OH if unused. Positions of bridges follow the written chain, without caps; N, C: chain ends. Non-standard residues stand in square brackets, D forms with d. Residues, ends and D or L forms follow the SMILES beside them. *: point of attachment. X1 = CC[C@H](C)[C@@H](N[*:1])[C@@H](O)CC(=O)O[C@H](C(=O)[C@H](C)C(=O)[*:2])C(C)C; NMeY = CN[C@@H](Cc1ccc(O)cc1)C(=O)O; dNMeL = CN[C@H](CC(C)C)C(=O)O; Pyruvoyl = CC(=O)C(=O)*", "data": [{"smiles": "CC[C@H](C)[C@H]1NC(=O)[C@@H](NC(=O)[C@@H](CC(C)C)N(C)C(=O)[C@@H]2CCCN2C(=O)C(C)=O)[C@@H](C)OC(=O)[C@H](Cc2ccc(OC)cc2)N(C)C(=O)[C@@H]2CCCN2C(=O)[C@H](CC(C)C)NC(=O)[C@@H](C)C(=O)[C@H](C(C)C)OC(=O)C[C@@H]1O", "note": "[Plitidepsin] (Pyruvoyl-P[dNMeL]T[X1]LP[NMeY](Me); ester 3-C)", "values": [{"measurement": "5 Hospital admission, requiring extracorporeal membrane oxygenation or invasive mechanical ventilation", "setting": "[1]; 2.5 mg (N=15)", "value": 6.7, "unit": "%"}, {"measurement": "6 Death", "setting": "[1]; 2.5 mg (N=15)", "value": 6.7, "unit": "%"}, {"measurement": "1 Discharged (Alive)", "setting": "[1]; Total (N=44)", "value": 86.4, "unit": "%"}, {"measurement": "2 Hospital admission, not requiring supplemental oxygen", "setting": "[1]; Total (N=44)", "value": 4.5, "unit": "%"}, {"measurement": "4 Hospital admission, requiring high-flow nasal cannula or non-invasive mechanical ventilation", "setting": "[1]; Total (N=44)", "value": 2.3, "unit": "%"}, {"measurement": "5 Hospital admission, requiring extracorporeal membrane oxygenation or invasive mechanical ventilation", "setting": "[1]; Total (N=44)", "value": 2.3, "unit": "%"}, {"measurement": "6 Death", "setting": "[1]; Total (N=44)", "value": 4.5, "unit": "%"}, {"measurement": "Mean time from baseline until undetectable viral load", "setting": "[2]; 1.5 mg", "value": 11, "unit": "days"}, {"measurement": "Mean time from baseline until undetectable viral load", "setting": "[2]; 2.0 mg", "value": 14, "unit": "days"}, {"measurement": "Mean time from baseline until undetectable viral load", "setting": "[2]; 2.5 mg", "value": 14, "unit": "days"}, {"measurement": "Mean change in viral load from baseline to", "setting": "[2]; Day 4, 1.5 mg", "value": "−1.23", "unit": "log10 copies/ml"}, {"measurement": "Mean change in viral load from baseline to", "setting": "[2]; Day 4, 2.0 mg", "value": "−1.49", "unit": "log10 copies/ml"}, {"measurement": "Mean change in viral load from baseline to", "setting": "[2]; Day 4, 2.5 mg", "value": "−1.32", "unit": "log10 copies/ml"}, {"measurement": "Mean change in viral load from baseline to", "setting": "[2]; Day 4, Total", "value": "−1.35", "unit": "log10 copies/ml"}, {"measurement": "Mean change in viral load from baseline to", "setting": "[2]; Day 7, 1.5 mg", "value": "−2.55", "unit": "log10 copies/ml"}, {"measurement": "Mean change in viral load from baseline to", "setting": "[2]; Day 7, 2.0 mg", "value": "−2.26", "unit": "log10 copies/ml"}, {"measurement": "Mean change in viral load from baseline to", "setting": "[2]; Day 7, 2.5 mg", "value": "−2.25", "unit": "log10 copies/ml"}, {"measurement": "Mean change in viral load from baseline to", "setting": "[2]; Day 7, Total", "value": "−2.35", "unit": "log10 copies/ml"}, {"measurement": "Mean change in viral load from baseline to", "setting": "[2]; Day 15, 1.5 mg", "value": "−4.22", "unit": "log10 copies/ml"}, {"measurement": "Mean change in viral load from baseline to", "setting": "[2]; Day 15, 2.0 mg", "value": "−2.70", "unit": "log10 copies/ml"}, {"measurement": "Mean change in viral load from baseline to", "setting": "[2]; Day 15, 2.5 mg", "value": "−2.92", "unit": "log10 copies/ml"}, {"measurement": "Mean change in viral load from baseline to", "setting": "[2]; Day 15, Total", "value": "−3.25", "unit": "log10 copies/ml"}, {"measurement": "Mean change in viral load from baseline to", "setting": "[2]; Day 31, 1.5 mg", "value": "−4.70", "unit": "log10 copies/ml"}, {"measurement": "Mean change in viral load from baseline to", "setting": "[2]; Day 31, 2.0 mg", "value": "−3.53", "unit": "log10 copies/ml"}, {"measurement": "Mean change in viral load from baseline to", "setting": "[2]; Day 31, 2.5 mg", "value": "−3.49", "unit": "log10 copies/ml"}, {"measurement": "Mean change in viral load from baseline to", "setting": "[2]; Day 31, Total", "value": "−3.85", "unit": "log10 copies/ml"}, {"measurement": "Mean time from baseline until undetectable viral load", "setting": "[2]; Total", "value": 13, "unit": "days"}, {"measurement": "mean viral load decline from baseline", "setting": "[2]; day 4", "value": 1.35, "unit": "log10 copies/ml"}, {"measurement": "mean viral load decline from baseline", "setting": "[2]; day 7", "value": 2.35, "unit": "log10 copies/ml"}, {"measurement": "mean viral load decline from baseline", "setting": "[2]; day 15", "value": 3.25, "unit": "log10 copies/ml"}, {"measurement": "mean viral load decline from baseline", "setting": "[2]; day 31", "value": 3.85, "unit": "log10 copies/ml"}, {"measurement": "log10 viral load", "setting": "[2]; 1.5 mg/d, Day 4", "value": "5.14 copies/ mL and 3.25 copies/ mL and 8.4 copies/ mL and 9.54 copies/ mL and 6.54 copies/ mL and 3.61 copies/ mL and 7.39 copies/ mL and 4.02 copies/ mL and 6.56 copies/ mL and 5.76 copies/ mL"}, {"measurement": "log10 viral load", "setting": "[2]; 1.5 mg/d, Day 7", "value": "8.47 copies/ mL and 6.63 copies/ mL and 4.34 copies/ mL and 4.7 copies/ mL and 5.83 copies/ mL and 4.71 copies/ mL and 3.82 copies/ mL"}, {"measurement": "log10 viral load", "setting": "[2]; 1.5 mg/d, Day 15", "value": "6.05 copies/ mL and 7.46 copies/ mL"}, {"measurement": "log10 viral load", "setting": "[2]; 1.5 mg/d, Day 31", "value": 4.42, "unit": "copies/ mL"}, {"measurement": "log10 viral load", "setting": "[2]; 2 mg/d, Day 4", "value": "7.95 copies/ mL and 4.46 copies/ mL and 5.3 copies/ mL and 6.17 copies/ mL and 4.53 copies/ mL and 4.47 copies/ mL and 5.34 copies/ mL and 5.99 copies/ mL and 5.69 copies/ mL and 5.5 copies/ mL"}, {"measurement": "log10 viral load", "setting": "[2]; 2 mg/d, Day 7", "value": "6.52 copies/ mL and 4.68 copies/ mL and 4.59 copies/ mL and 3.38 copies/ mL and 4.02 copies/ mL and 3.62 copies/ mL and 4.33 copies/ mL and 2.89 copies/ mL and 5.2 copies/ mL and 5.49 copies/ mL"}, {"measurement": "log10 viral load", "setting": "[2]; 2 mg/d, Day 15", "value": "8.14 copies/ mL and 5.52 copies/ mL and 5.22 copies/ mL and 4.43 copies/ mL and 4.92 copies/ mL"}, {"measurement": "log10 viral load", "setting": "[2]; 2 mg/d, Day 31", "value": "7.37 copies/ mL and 4.31 copies/ mL and 4.69 copies/ mL"}, {"measurement": "log10 viral load", "setting": "[2]; 2.5 mg/d, Day 4", "value": "4.3 copies/ mL and 5.45 copies/ mL and 4.37 copies/ mL and 4.77 copies/ mL and 5.57 copies/ mL and 6.26 copies/ mL and 8.67 copies/ mL and 9.84 copies/ mL and 3.79 copies/ mL and 9.25 copies/ mL"}, {"measurement": "log10 viral load", "setting": "[2]; 2.5 mg/d, Day 7", "value": "3.05 copies/ mL and 4.44 copies/ mL and 5.49 copies/ mL and 3.33 copies/ mL and 7.29 copies/ mL and 9.54 copies/ mL and 6.99 copies/ mL"}, {"measurement": "log10 viral load", "setting": "[2]; 2.5 mg/d, Day 15", "value": "3.8 copies/ mL and 5.66 copies/ mL and 5.92 copies/ mL and 8.33 copies/ mL"}, {"measurement": "log10 viral load", "setting": "[2]; 2.5 mg/d, Day 31", "value": "3.6 copies/ mL and 5.33 copies/ mL and 4.68 copies/ mL"}, {"measurement": "mean time to undetectable viral load", "setting": "[2]; patients with mild or moderate disease at baseline", "value": 12, "unit": "days"}, {"measurement": "mean time to undetectable viral load", "setting": "[2]; patients with severe disease at baseline", "value": 15, "unit": "days"}, {"measurement": "lung-blood (LBR) AUC ratio", "setting": "[3]", "value": "around 8 fold"}]}]}
